Drawing on US12559474B2, “Triazine derivatives having virus replication inhibitory activity and pharmaceutical composition comprising the same” (priority 2021, dated 2026), this text covers EC50 and IC50 for 25 compounds.

Molecules are shown by their SMILES. Like-named read-outs stand apart in the source and are kept apart here.

One assay has as its system SARS-CoV-2. In words: microbe, parasite or virus in culture. The assay is classed as cell-based. As to conditions: Severe acute respiratory syndrome coronavirus 2, VeroE6/TMPRSS2, 72 h, 50% SARS-CoV-2 infected cell death inhibitory concentration, VeroE6/TMPRSS2 cells, 3 days culture.
For another assay, the target named is SARS-CoV-2 3CL protease (Severe acute respiratory syndrome coronavirus 2, UniProt P0DTD1). In words: biochemical. As to conditions: 50% SARS-CoV-2 3CL protease inhibitory concentration, read-out: IC50.

The term EC50 denotes the concentration needed to bring the measured effect to its halfway point. Lower therefore signals higher potency in that assay. What is called IC50 is the midpoint of a concentration-inhibition curve. For `O=c1[nH]cccc1Cn1c(=O)nc(Nc2cc3ccnn3cc2Cl)n(Cc2cc(F)c(F)c(F)c2)c1=O` [Compound I-0247], the EC50 was 3540 nM in the assay with SARS-CoV-2 (CellTiter-Glo 2.0) and 1000 to 10000 nM with SARS-CoV-2 (class symbols). The IC50 on SARS-CoV-2 3CL protease (RapidFire MS) came out at 25 nM.
For `Cc1cncc(-n2c(=O)nc(N(C)c3cc4cn(C)nc4cc3Cl)n(Cc3cc(F)c(F)c(F)c3)c2=O)c1` [II-0483], a half-maximal effect with SARS-CoV-2 (CellTiter-Glo 2.0) (EC50) was put at 20900 nM. Moreover, the IC50 on SARS-CoV-2 3CL protease (RapidFire MS) is 1800 nM.
Consider `N#Cc1cc(Cn2c(Nc3cc4cn(CCO)nc4cc3Cl)nc(=O)n(-c3cccc4ccccc34)c2=O)ccc1F` [Compound I-0435], for which the EC50 in the assay with SARS-CoV-2 (class symbols) lay in the range of 1000 to 10000 nM. The IC50 at SARS-CoV-2 3CL protease (given as class symbols) is < 100 nM.
On to `COc1ccc(Nc2nc(=O)n(Cc3ccc[nH]c3=O)c(=O)n2Cc2ccc(Cl)s2)cc1` [Compound I-0321], for which the EC50 with SARS-CoV-2 (class symbols) is < 1000 nM. Further, the results for the IC50 on SARS-CoV-2 3CL protease (given as class symbols) and at SARS-CoV-2 3CL protease (RapidFire MS) were 1000 to 10000 nM and 2100 nM, respectively.
With `Cc1cncc(-n2c(=O)nc(Nc3cc4c(C)n(C)nc4cc3Cl)n(Cc3ccc(F)c(C#N)c3)c2=O)c1` [II-0436], the EC50 in the assay on SARS-CoV-2 (class symbols) was < 1000 nM. Besides, the half-inhibitory concentration (IC50) at SARS-CoV-2 3CL protease (given as class symbols) was < 100 nM.
The matching figures for `CC1(Cn2cc3cc(Nc4nc(=O)n(Cc5ccc[nH]c5=O)c(=O)n4Cc4cc(F)c(F)c(F)c4)c(Cl)cc3n2)COC1` [II-0099]: 1000 to 10000 nM and < 100 nM.
In the assay on SARS-CoV-2 (CellTiter-Glo 2.0), `COc1ccc(Nc2nc(=O)n(-c3cncc(C4CC4)c3)c(=O)n2Cc2cc(F)c(F)c(F)c2)cc1` [II-0272] showed a 50% effective concentration (EC50) of 1590 nM. Further, the IC50 at SARS-CoV-2 3CL protease (RapidFire MS) is 180 nM.
In the assay on SARS-CoV-2 (class symbols), `O=c1nc(Nc2cc3c(cc2Cl)nc2n3CCN2)n(Cc2cc(Cl)c(F)cc2F)c(=O)n1-c1cncc(Cl)c1` [II-0349] registered a concentration giving a half-maximal response (EC50) of 1000 to 10000 nM. Also, the IC50 at SARS-CoV-2 3CL protease (given as class symbols) is < 100 nM.
The matching figures for `COc1ccc(Nc2nc(=O)n(-c3cncc(C)c3)c(=O)n2Cc2ccc(F)c(C#N)c2)c(Cl)c1` [II-0165]: < 1000 nM and < 100 nM.
For `O=c1nc(Nc2cc3sc(NC4CC4)nc3cc2Cl)n(Cc2cc(Cl)c(F)cc2F)c(=O)n1Cc1ncccn1` [II-0237] the same measures were < 1000 nM and < 100 nM.
Take `CNc1nc2cc(F)c(Nc3nc(=O)n(-c4cncc(C)c4)c(=O)n3Cc3cc(C#N)c(F)cc3C)cc2s1` [II-0234]: the EC50 with SARS-CoV-2 (class symbols) was < 1000 nM. Besides, the IC50 at SARS-CoV-2 3CL protease (given as class symbols) is < 100 nM.
In the case of `Cn1cc2cc(Nc3nc(=O)n(CC(=O)NC4CCCCC4)c(=O)n3Cc3cc(F)c(F)c(F)c3)c(Cl)cc2n1` [II-0330], the EC50 in the assay with SARS-CoV-2 (CellTiter-Glo 2.0) is 42200 nM. Also, on SARS-CoV-2 3CL protease (RapidFire MS), the IC50 is 3600 nM.
On to `C[C@@H](O)Cn1cc2cc(Nc3nc(=O)n(Cc4ccc[nH]c4=O)c(=O)n3Cc3cc(F)c(F)c(F)c3)c(Cl)cc2n1` [Compound I-0425], for which, in the assay with SARS-CoV-2 (class symbols), the EC50 was in the range of 1000 to 10000 nM. Also, the IC50 on SARS-CoV-2 3CL protease (given as class symbols) is < 100 nM.
For `Cc1cc(F)c(Cl)cc1Cn1c(Nc2cc3cn(C)nc3cc2Cl)nc(=O)n(Cc2ncn(C)n2)c1=O` [II-0044] the same measures were < 1000 nM and < 100 nM.
The matching figures for `Cn1cc2cc(Nc3nc(=O)n(-c4cncc(N)c4)c(=O)n3Cc3cc(F)c(F)c(Cl)c3)c(Cl)cc2n1` [II-0384]: 1000 to 10000 nM and < 100 nM.
The matching figures for `Cc1cncc(-n2c(=O)nc(Nc3cc4oc(C)nc4cc3C)n(Cc3ccc(F)c(C#N)c3)c2=O)c1` [II-0110]: < 1000 nM and < 100 nM.
Regarding `O=c1nc(Nc2cc3cn(CCN4CCOCC4)nc3cc2Cl)n(Cc2cc(F)c(F)cc2F)c(=O)n1-c1cncc2ccccc12` [II-0078], in the assay with SARS-CoV-2 (class symbols), the EC50 is < 1000 nM. Further, the IC50 on SARS-CoV-2 3CL protease (given as class symbols) is < 100 nM.
For `Cc1cncc(-n2c(=O)nc(Nc3cc4cn(C)nc4cc3Cl)n(Cc3cc(C#N)ccc3C(F)F)c2=O)c1` [II-0333] the same measures were < 1000 nM and < 100 nM.
In the assay with SARS-CoV-2 (class symbols), `Cc1cncc(-n2c(=O)nc(Nc3ccc4nn(C(C)C)cc4c3)n(Cc3ccc(F)c(C#N)c3)c2=O)c1` [II-0038] registered an EC50 of 1000 to 10000 nM. For the same compound, the IC50 at SARS-CoV-2 3CL protease (given as class symbols) was < 100 nM.
For `Cn1cc2cc(Nc3nc(=O)n(Cc4ccc[nH]c4=O)c(=O)n3Cc3cc(F)c(F)cc3F)c(Cl)cc2n1` [Compound I-0009] the same measures were < 1000 nM and < 100 nM.
The matching figures for `CC(=O)Nc1nc2cc(F)c(Nc3nc(=O)n(-c4cncc(C)c4)c(=O)n3Cc3ccc(F)c(C#N)c3)cc2s1` [II-0011]: 1000 to 10000 nM and < 100 nM.
The matching figures for `COc1cc(Cl)c(Nc2nc(=O)n(Cc3ccc[nH]c3=O)c(=O)n2Cc2cc(F)c(F)c(F)c2)c(OC)c1` [Compound I-0094]: 1000 to 10000 nM and < 100 nM.
Turning to `Cc1cncc(-n2c(=O)nc(Nc3cc4cn(C)nc4cc3F)n(Cc3cc(F)c(F)c(C#N)c3)c2=O)c1` [II-0054], in the assay with SARS-CoV-2 (class symbols), the EC50 was < 1000 nM. For the same compound, the IC50 on SARS-CoV-2 3CL protease (given as class symbols) is < 100 nM.
The matching figures for `Cc1cncc(-n2c(=O)nc(Nc3cc4c(cc3Cl)OCC4)n(Cc3ccc(F)c(C#N)c3)c2=O)c1` [II-0156]: < 1000 nM and < 100 nM.
For `O=c1[nH]cccc1Cn1c(=O)nc(Nc2cc3cn(C4COC4)nc3cc2Cl)n(Cc2cc(F)c(F)c(F)c2)c1=O` [Compound I-0382] the same measures were 1000 to 10000 nM and < 100 nM.
